The values that follow come from patent US5279956A, “Activated protein C polypeptides and anti-peptide antibodies, diagnostic methods and systems for inhibiting activated protein C” (The Scripps Research Institute, priority 1991, dated 1994).

The test system of this assay is anti-(390-404) antibody. As to the kind of experiment: Solid-phase ELISA: binding of anti-(390-404) antibody to immobilized peptides and PC. Details: species or system rabbit. The procedure:
To determine the immunospecificity of the rabbit antisera obtained in Example 2b, ELISA assays were performed. Briefly, 50 μl of either 50 μM peptide-(390-404) prepared in Example 1 or 10 μg/ml of PC or APC prepared in Example 2c in a buffer consisting of 0.05M sodium carbonate (Na2 CO3) and 0.02% NaN3 at pH 9.0 were admixed into the wells of microtiter plates. The plates were maintained at 37° C. for one hour to permit the antigens to become operatively affixed to the well walls. After washing the antigen-coated wells with TBS, the wells were blocked with 250 μl/well of 10% bovine serum albumin (BSA) (Sigma) in TBS for one hour at 22° C. The blocking solution was then removed and the wells were subsequently washed five times with 250 μl/well of maintenance buffer (0.05M Tris-HCl, 0.1M NaCl, 0.02% NaN3, 1 mg/ml BSA, 5 mM CaCl2, 0.01% Tween 20 at pH 7.4). Fifty μl of rabbit non-immune or specific antiserum serially diluted in maintenance buffer was then admixed to the washed wells and maintained for one hour at 37° C. to allow formation of a solid liquid phase immunoreaction products. The wells were then washed three times with maintenance buffer followed by admixture of 50 μl of 2.0 μg/ml of secondary antibody (polyclonal biotinylated goat-anti-rabbit-IgG) (Pierce Biochemicals) diluted in maintenance buffer to each well for the detection of immunoreactant products. The plates were maintained for 1 hour at 37° C. after which time the secondary antibody solution was removed. After washing the wells as described above, 50 μl of 2.0 μg/ml streptavidin-alkaline-phosphatase (Pierce Biochemicals) in maintenance buffer was admixed into each well and maintained for 30 minutes at 37° C. Detection of specific immunoreaction products was obtained by admixture of 150 μl/well of 5 mg/ml p-nitrophenylphosphate (PNPP) (Pierce Biochemicals) in 0.1M diethanolamine and 0.02% NaN3 at pH 9.6 followed by measurement of the change in absorbance at 405 nm over time using the EL312 Microplate Bio-Kinetics Reader and the KinetiCalc Software Program (Biotek Instruments, Inc., Vt.). Non-specific binding was considered as the measured absorbance in 10% BSA blocked wells which served as negative controls without the preceding coating of a specific protein or peptide. Under the described conditions, non-specific binding never exceeded more than 5% of the specific binding.
The specificity of immunoaffinity purified anti-(390-404) antibody towards peptide-(390-404) and PC was evaluated by measuring the binding in solid-phase ELISA of the antibody to immobilized peptides including -(384-398), -(390-404), -(396-410), -(404-390), and -K395A-(390-404) listed in Table 1 with their corresponding SEQ ID NO, and to PC. […]
(In an ELISA, binding on a coated surface is turned into a signal by an enzyme label.)

Entries after “also recorded” stand apart in the source; their conditions may differ. No end group written: not given here.

“SGLLHNYGVYTKVSR-NH2 [peptide-(384-398), -SGLLHNYGVYTKVSR]”: the “binding of anti-(390-404) antibody to immobilized peptide or PC” value (solid-phase ELISA) is “did not bind significantly; also recorded: did not significantly bind”. Moreover, the “Anti-(390-404) (Absorbance/20 min.)” value (wells coated with 50 μM peptide or 10 μg/ml PC, 2 μg/ml anti-(390-404) antibody, mean of duplicates) was found to be 3 Absorbance/20 min.
